These results are taken from patent US20240285566A1, “SUBCUTANEOUS FORMULATION AND METHODS FOR TREATING EDEMA REFRACTORY TO ORAL DIURETICS” (RESQ Pharmaceuticals LLC, priority 2021, published 2024).

A short description of data set [1]: in vivo. On the set-up: species or system beagle dogs. The conditions noted are these: dog. As for the experimental part: The purpose of this study was to assess the pharmacokinetic profiles of various formulations of bumetanide, including arginine bumetanide salts (FS-5 and FS-6) and potassium bumetanide salts (FS-3 and FS-4) for subcutaneous administration, and an bumetanide intranasal formulation (F82), which are described in Table 60, when each formulation is administered as a single subcutaneous, or intranasal in different vehicles when compared to single IV administration dose in male and female beagle dogs.
A total of four dogs were assigned to the study (3 males, 9-13 kg and 1 female, 7-10 kg) ranging from 1 to 3 years old.
The study was conducted in 6 Events in the same animals, separated by at least 48 hours or more washout period between events.
For subcutaneous administration the bumetanide formulations were injected subcutaneously (100 μL/dog), using a 25G hypodermic needle. After each application, successful dosing was verified by visual inspection of the dog injection site and after 1 minute of dosing. Only successful administrations will be accepted.
For intranasal administration, each dog was held in an upright position with the nose pointing up. The test article (50 μL) was delivered into each nostril (total 100 μL/dog). The nose was held pointing up for ˜60 seconds after dosing. After each application, successful dosing was verified by visual inspection of the pipette tip and the dog nostril.
For intravenous administration, the commercially available injection of bumetanide (Walgreens, 0.25 mg/mL) was used and administered via the cephalic vein over a period of 30 seconds (4.0 mL/dog, IV).
Body weights of the dogs were measured for each dog prior to each dose on the day of dose, and approximately 48 hours post-dose for each event. For some events, the 48 hour post-dose weight was the same weight as the pre-dose weight for the following dose. Urine production was also monitored post-dose to assess diuresis by making observations at 30 minutes, 1, 2, 3 and 4 hours post-dose. Urine volume was not measured. On each day of dosing, blood (˜600 μL/timepoint, jugular or cephalic vein) were collected in red top tubes with clotting activator (Sarstedt, Inc-41.1392.105 or similar) to obtain serum at the times described in Table 61. Blood was centrifuged at 5000×g for 10 minutes at 4° C. If the samples were collected outside the collection window, they were not be considered a protocol deviation. Serum was divided into 2 aliquots of ˜150 μL each and stored frozen at −20° C. until it was shipped to Climax Laboratories, Inc. on dry ice.

The nature of data set [2]: Solubility of bumetanide free acid in water with and without tetradecyl-β-D-maltoside (HPLC). The class given is physicochemical. How it is done:
Bumetanide, 10 mg, in its free acid form was added to 1 mL of deionized water and mixed using a vortex and sonicator. The solution was filtered using a 0.22 μm nylon syringe filter. To 900 μL deionized water, 100 μL of the filtered bumetanide solution was added before being characterized for the concentration of the bumetanide in solution using HPLC. The concentration of bumetanide was determined using a standard curve generated by bumetanide solutions of known concentrations. […] Therefore, to the 10 mg of bumetanide, 1 mL of deionized water containing 1.0%, 0.5% or 0.1% of the surfactant tetradecyl-β-D-maltoside. The bumetanide was then solubilized using a vortex and sonicator, after which it was filtered using a 0.22 μm nylon syringe filter. To 900 μL deionized water, 100 μL of the filtered bumetanide solution was added before being characterized for the concentration of the bumetanide in solution using HPLC. The resulting bumetanide concentrations are recorded in Table 1.

Data set [3] in a line: Stability of arginine and potassium bumetanide salts over four weeks. The data set is classed as physicochemical. The conditions noted are these: for stability of the salt solution: at either 5° C. or 25° C. How it is done:
The stability of the arginine and potassium bumetanide salts was monitored over a four week period with storage at either 2-8° C. or 25° C. for that time period. The bumetanide salt solutions were evaluated on the basis of pH, concentration of bumetanide in solution, the percent assay recovery and the presence of an impurity (see Tables 17 and 18).

For orientation: AUC means concentration integrated over time. A low value points to less exposure. One may read the AUC(0-t) as the area under the concentration-time curve up to a stated or last time point. Low values mean low exposure, high ones high exposure. As to `CCCCNc1cc(C(=O)O)cc(S(N)(=O)=O)c1Oc1ccccc1` [Bumetanide], the AUC in data set [1] (beagle, iv, 1 mg) was 140 ng·h/mL; in data set [1] (beagle, iv, 1 mg, AUC (ng*h/mL)), 140 ng·h/mL; in data set [1] (both sexes, beagle, iv, 1 mg), 185 ng·h/mL; in data set [1] (both sexes, beagle, iv, 1 mg, AUC (ng*h/mL)) it was 185 ng·h/mL. The area under the curve AUC(0-t) in data set [1] (both sexes, beagle, iv, 1 mg) is 185 ng·h/mL. For the same molecule, the solubility in water result is listed as “Nearly no bumetanide in the free acid form was soluble water” in data set [2] (free acid form, deionized water, no surfactant) and “incredibly low solubility in water” in data set [2] (not in a salt form, in the presence of surfactant).

Consider `CCCCNc1cc(C(=O)O)cc(S(N)(=O)=O)c1Oc1ccccc1.N=C(N)NCCCC(N)C(=O)O` [arginine bumetanide salt], for which the Assay in data set [3] (1 week at 5° C.) turned out to be 5.08 mg/mL; in data set [3] (1 week at 25° C.) it was 5.06 mg/mL; in data set [3] (2 weeks at 5° C.), 4.99 mg/mL; in data set [3] (2 weeks at 25° C.) it was 4.97 mg/mL; in data set [3] (4 weeks at 5° C.) it was 4.89 mg/mL; in data set [3] (4 weeks at 25° C.), 4.97 mg/mL. For the same molecule, in data set [3] (T0), the Assay is reported as 5.07 mg/mL. In addition, the pH in data set [3] (1 week at 5° C.) is given as 7.0; in data set [3] (1 week at 25° C.), 7.1; in data set [3] (2 weeks at 5° C.), 7.0; in data set [3] (2 weeks at 25° C.), 7.0; in data set [3] (4 weeks at 5° C.), 7.0; in data set [3] (4 weeks at 25° C.) it was 7.1. Besides, the pH in data set [3] (T0) was determined as 7.0. In addition, in data set [3] (T0), the Osmolality is given as 335 mOsm/kg. In data set [3] (T0), the Viscosity came out at 1.3 cP. Besides, the “stability of the salt solution” value in data set [3] is recorded as “stable for up to four weeks”. Besides, the “impurity by HPLC” value in data set [3] (initially or after four weeks, 5° C. and 25° C.) is on record as “no impurity was detected”.

For `CCCCNc1cc(C(=O)[O-])cc(S(N)(=O)=O)c1Oc1ccccc1.[K+]` [potassium bumetanide salt], the “serum concentrations compared to IV administration of bumetanide” value in data set [1] is “higher serum concentrations”. Further, the Assay in data set [3] (1 week at 5° C.) was determined as 5.18 mg/mL; in data set [3] (1 week at 25° C.), 5.10 mg/mL; in data set [3] (2 weeks at 5° C.) it was 4.97 mg/mL; in data set [3] (2 weeks at 25° C.), 4.96 mg/mL; in data set [3] (4 weeks at 5° C.), 5.00 mg/mL; in data set [3] (4 weeks at 25° C.), 5.03 mg/mL. Moreover, in data set [3] (T0), the Assay was found to be 5.10 mg/mL. Also, the pH in data set [3] (1 week at 5° C.) was found to be 7.0; in data set [3] (1 week at 25° C.), 7.0; in data set [3] (2 weeks at 5° C.) it was 7.0; in data set [3] (2 weeks at 25° C.), 7.1; in data set [3] (4 weeks at 5° C.), 7.0; in data set [3] (4 weeks at 25° C.), 7.1. Besides, in data set [3] (T0), the pH stood at 7.0. Moreover, the Osmolality in data set [3] (T0) is listed as 317 mOsm/kg. Moreover, the Viscosity in data set [3] (T0) is given as 1.3 cP. Moreover, the “stability of the salt solution” value in data set [3] is “stable for up to four weeks”.
